# In patent US20220073557A1, “FLUORINATED BILE ACIDS” (NZP UK LIMITED, priority 2018, published 2022):
# pEC50: −log10 of the molar value. Structures can show the parent of a compound that is named as a salt. Where two headings read alike, the source gives them in different places.
# Legend:
# [1] = tested on: sporadic PD patient fibroblasts; test: Mitochondrial membrane potential (MMP, TMRM) in sporadic PD patient fibroblasts; assay type: cell-based; conditions: Homo sapiens, Fibroblast, 24 h; for activity at 0.3 µM: read-out: MMP Top (% of vehicle treated); for activity at 60 pM: read-out: MMP Bottom (% of vehicle treated)
# Method: (§1) Fibroblasts were cultured in DMEM (Invitrogen) and routinely subcultured every 3-5 days using trypsin to dissociate them.
# Fibroblasts were cultured and plated into a Griener black 384 pClear® plate at 10000 cells per well in 50 μl of media volume. The plates are left overnight in an incubator to allow the fibroblasts to adhere to the plate surface. The following morning the Glucose based medium is replaced with 25 μl of Galactose based media. The plates were then dosed with the compounds using an ECHO® 550 liquid handling system. The wells were dosed to provide an 8-point concentration range of 0.06 nM-300 nM of compound. After dosing the wells are topped up with a further 25 μl of Galactose based medium and then left in an incubator for 24 hours. After 24 hours, the medium is removed from the wells and replaced with 25 ul phenol free Minimal essential medium with 100 nM TMRM (Sigma) and 10 μM Hoechst Stain (Sigma). The plate is returned to the incubator for another hour after which the stain medium is removed and replaced with 25 ul Phenol free MEM. The plate is then imaged using an IN Cell high content microscope (GE Healthcare) with 10 fields of view per well in 2 channels, Cy3 excitation 542 nm, emission 604-64 nm; and the DAPI excitation 350 nm, emission 450-55 nm at 37° C. with CO2. After imaging the plate is disposed of and the images are Data mined using the INCell developer Toolkit (GE Healthcare).
# (§2) After the assays had been repeated in triplicate per line and compound the data was then inputted into Graph pad Prism 7 software suite where a dose response curve is generated using the default “[Agonist] vs response (three parameters)” equation.
# (§3) From this EC50 values, lowest response and maximal response were taken and used to calculate the Geometric mean between the 5 different lines assessed.
# The mitochondrial membrane potential was measured in fibroblasts from 6 (Table 1) or 3 (Table 2) patients with sporadic Parkinson's disease when treated with Compounds of the invention or Comparator compounds. The results are shown in Tables 1 and 2, where “Bottom”=max response with lowest dose of compound (0.06 nM) and “top”=max response with highest dose of compound (300 nM).
# [2] = tested on: sAD and familial AD (PSEN1 mutants) patient fibroblasts; test: Total cellular ATP levels in Alzheimer's disease patient fibroblasts; assay type: cell-based, human; conditions: 24 hour treatment at 100 nM, 21% restores to control levels
# Method: Data shown in the Table 6 below is the mean increase in ATP levels after 24 hour treatment with compounds at 100 nM concentration.
# [3] = tested on: sporadic PD patient fibroblasts; test: Cellular ATP levels (ATPlite, normalised to CyQUANT DNA content) in sporadic PD patient fibroblasts; assay type: cell-based; conditions: Homo sapiens, Fibroblast, 24 h; for activity at 0.3 µM: read-out: Cellular ATP levels Top (% of vehicle treated); for activity at 60 pM: read-out: Cellular ATP levels Bottom (% of vehicle treated)
# Method: as §1
# The ATP protocol is generally as described in Mortiboys et al, “Mitochondrial function and morphology are impaired in parkin-mutant fibroblasts”, Ann Neurol. 2008 November; 64(5):555-65. Briefly, fibroblasts were cultured as and plated into white 384 well plates with 5000 cells per well in 50 μl of media volume. The plates are left overnight in an incubator to allow the fibroblasts to adhere to the plate surface. The following morning the Glucose based medium is replaced with 25 μl of Galactose based medium. The compounds are added to the plates using a ECHO 550 liquid handling system. The wells were dosed to provide an 8-point concentration range of 0.06 nM-300 nM of compound. After dosing the wells are topped up with a further 25 μl of Galactose based medium and then left in an incubator for 24 hours. Following this incubation the medium is removed from the plate and the wells are washed twice with sterile PBS. The wells are filled with 25 μl of Sterile PBS followed by 12.5 μl of Lysis solution from the ATPlite™ Luminescence ATP detection assay system (Perkin Elmer), including 16 cell free wells to use as blank controls. The plate is then placed on a rotary shaker for 5 mins at 700 rpm. Following the shaking 12.5 μl of ATP substrate solution (Perkin Elmer) is added to each well and a further 5 min of shaking. The plate is then placed in darkness for 10 minutes prior to reading. Using a PHERAStar® plate reader, luminescence intensity is recorded. Following the ATP assay the plates are immediately assayed for DNA content in a CyQUANT® assay.
# Immediately following The ATP assay DNA content is assessed with the CyQUANT® NF Cell Proliferation Assay Kit (ThermoFisher). CyQUANT® buffer is prepared immediately before the assay and is comprised of 1 ul CyQUANT® dye per ml×1 HBSS solution. 12.5 ul of CyQUANT® buffer is added to each well. Plate left in incubator for 1 hour then read on a PHERAStar® Plate reader with excitation at 497 nm and emission at 520 nm. ATP Quantification for each well is determined using the following formula: […]
# as §2, §3
# Cellular ATP levels were measured in fibroblasts from 6 (Table 3) or 3 (Table 4) patients with sporadic Parkinson's disease when treated with Compounds of the invention or Comparator compounds. The results are shown in Tables 3 and 4, where “Bottom”=max response with lowest dose of compound (0.06 nM) and “top”=max response with highest dose of compound (300 nM).
# [4] = tested on: mitochondrial respiratory chain complex I; test: Complex I assay, left striatum brain homogenate of mice dosed with or without MPTP; assay type: in vivo, mouse; conditions: left striatum mouse brain homogenate; MPTP alone; FIG. 4
# Method: Ex vivo mice brain was homogenated in a buffer of 250 mM sucrose, 20 mM HEPES, 3 mM EDTA, pH 7.5 at 4° C. Homogenisation was carried out using a Dounce homogenizer, for cortex samples, and by repetitive passage through a 0.5 mm syringe for isolated striatum. Samples were then incubated with 30 μl of detergent from the AbCam colorimetric Complex I assay kit on ice for 20 minutes. Samples are then centrifuged at 13,000 rpm for 30 mins. Triplicate samples per condition were blocked using the kit blocking buffer on the AbCam colorimetric Complex I assay kit plate for 3 hours. Samples are then washed using the kit wash buffer 3 times before the addition of the kit assay buffer containing NADH and colorimetric dye. The assay plate is read on a plate reader in a kinetic assay programme reading 450 nm in a 30 second interval for 50 minutes.
# [5] = tested on: sporadic PD patient fibroblast lines; test: Seahorse assay (oxygen consumption, extracellular acidification rate) in sPD fibroblasts; assay type: cell-based, human; conditions: Homo sapiens, Fibroblast; concentration at which compounds were dosed in the seahorse assay; read-out: EC90 concentration
# Method: Fibroblasts are plated into Seahorse 24 well plates with 50,000 cells per well. Cells are left to attach for 2 days. Media is changed to Seahorse DMEM media with glucose and sodium pyruvate and left to equilibrate at 37 degrees normal air CO2 for 1 hour. The plate is entered into the Seahorse machine and run on a program of mix (2 minutes), wait (3 minutes) and measure (3 minutes). After three measurements of basal respiration and ECAR; 0.5 μM oligomycin is injected after which another three measurements are taken; then 0.5 μM of FCCP is injected and three measurements taken and finally 1 μM rotenone is injected and three measurements taken. After all measurements are complete, cells are stained with 10 μM Hoescht and imaged using the InCell to count the number of cells per well for normalisation. This classical ritochondrial stress test experimental protocol allows us to calculate the basal mitochondrial respiration, ATP linked respiration (the amount which is coupled to ATP generation), the maximal and spare respiratory capacity, the non-mitochondrial respiration rate and the extracellular acidification rate which is a proxy measure of glycosolysis.
# [6] = tested on: dopaminergic neurons derived from sPD patients (iNeurons); test: Dopamine ELISA in iNeurons; assay type: cell-based, human; conditions: untreated sPD 0
# Method: (§4) Briefly, iNPCs are plated in a 6-well plate and cultured for 2 days in DMEM/F-12 medium with Glutamax™ supplemented with 1% NEAA, 2% B27 (Gibco) and 2.5 μM of DAPT. On day 3, DAPT is removed and the medium is supplemented with 1 μM smoothened agonist (SAG) and FGF8 (75 ng/ml) for additional 10 days. Neurons are replated at this stage. Subsequently SAG and FGF8 are withdrawn and replaced with BDNF (30 ng/ml), GDNF (30 ng/ml), TGF-b3 […] and dcAMP (2 mM, Sigma) for 15 days.
# Dopamine ELISA is performed using Dopamine research ELISA kit (Labor Diagnostika Nord GmbH&Co. KG) as per manufacturers instructions. Dopamine release is obtained incubating the cells at 37° C. using three different conditions at the same time per line. Medium is removed in all wells then the first well is incubated with HBSS with Ca^2+ and Mg^2+ (Gibco by Life Technologies) for 30 minutes, the second well is incubated in HBSS with Ca^2+ and Mg^2+ for 15 minutes and then 56 mM KCl (Fisher chemical) is added for another 15 minutes and the third well is incubated with HBSS without Ca^2+ and Mg^2+ (Gibco by Life Technologies) but with 2 mM EDTA for 15 min and then 56 mM KCl is added for another 15 minutes. Straight away media is collected in an eppendorf and cells are harvested using Accutase®, centrifuge at 400 g for 4 min and resuspended in 10 μl of PBS. […]
# [7] = tested on: dopaminergic neurons derived from sPD patients (iNeurons); test: Mitochondrial function and neuronal morphology measurements in iNeurons from sPD patients; assay type: cell-based, human; conditions: iNeurons from sPD patients; for pEC50: Homo sapiens, Neuron
# Method: as §1, §4
# Cells are plated in 96 well plates; for live imaging cells are incubated for one hour at 37 degree with 80 nM tetramethlyrhodamine (TMRM), 1 μM LysoTracker® Green (Invitrogen) and Hoechst Stain solution (Sigma) at 1 μM before imaging using Opera Phenix™. Cellular ATP measurements are undertaken using ATPlite kit (Perkin Elmer) as per manufacturer's instructions. Mitochondrial reactive oxygen species generation was assessed using mitochondrial NpFR2 (probe; a kind gift from Dr Liz New, University of Sydney, Australia) at 20 μM and Hoechst stain solution at 1 μM for 30 mins at 37° C., then the dyes are removed and cells images using Opera Phenix™. Images generated from the live imaging experiments were analysed using Harmony® (Perkin Elmer software). We developed protocols in order to segment nucleus, cell boundary and processes, mitochondria, lysosomes, autophagosomes. We only analysed the z projection images collected from the z stacks.
# [8] = tested on: dopaminergic neurons derived from sPD patients (iNeurons); test: Activated caspase 3 immunofluorescence staining in iNeurons; assay type: cell-based, human; conditions: untreated sPD 162
# Method: as §4
# Cells are plated into 96 well plates and fixed using 4% paraformaldehyde for 30 minutes. After PBS washes cells are permeabilised using 0.1% Triton™ X-100 for 10 minutes and blocked using 5% goat serum for 1 hour. Cells are incubated with primary antibodies tyrosine hydroxylase (St John's Laboratory); DAT (Abcam); Tuj (Millipore); Tom20 (BD Biosciences); activated caspase 3 (Cell Signaling); alpha synuclein (Cell Signaling); phosphorylated alpha synuclein (Millipore) at 4° C. for 16 hours. Cells are washed using PBS-Tween® and incubated with Alexa Fluor™-conjugated secondary antibodies 488 and 568 (Invitrogen) and Hoescht (Sigma) 1 μM prior to imaging. Imaging was performed using the Opera Phenix™ high content imaging system (Perkin Elmer).
# [9] = max response with highest dose (300 nM), 6 sporadic PD patient fibroblasts
# [10] = max response with lowest dose (0.06 nM), 6 sporadic PD patient fibroblasts
smiles,measurement,setting,value
"C[C@H](CCC(=O)O)[C@H]1CC[C@H]2[C@@H]3[C@H](O)C[C@@H]4C[C@@H](O)[C@@H](F)C[C@]4(C)[C@H]3CC[C@]12C [Compound 2, 2β-fluoro-3β,7α-dihydroxy-5β-cholanic acid]",pEC50,"[1]; 6 sporadic PD patient fibroblasts, read-out: MMP EC50",7.68
same,activity at 0.3 µM,[1]; [9],112%
same,activity at 60 pM,[1]; [10],107%
same,% increase over vehicle treated (mean increase in ATP levels),[2],65%
same,pEC50,"[3]; 6 sporadic PD patient fibroblasts, read-out: Cellular ATP levels EC50",8.97
same,activity at 0.3 µM,[3]; [9],113%
same,activity at 60 pM,[3]; [10],79.9%
"CN1CC=C(c2ccccc2)CC1 [MPTP, 1-methyl-4-phenyl-1,2,3,6-tetrahydropyridine, reference compound]",Reduction in complex I activity compared with untreated controls,[4],50%
"C[C@H](CCC(=O)NCCOS(=O)(=O)O)[C@H]1CC[C@H]2[C@@H]3[C@@H](O)C[C@@H]4C[C@@H](O)C(F)(F)C[C@]4(C)[C@H]3CC[C@]12C [Compound 22, Sodium N-(2,2-difluoro-3β,7β-dihydroxy-5β-cholan-24-oyl)-2-aminoethyl sulfate]",activity at 60 pM,[1],99.3%
same,EC50,[1]; read-out: MMP EC50 (nM),45.4 nM
same,activity at 0.3 µM,[1],146%
same,activity at 60 pM,[3],95.9%
same,EC50,[3]; read-out: Cellular ATP levels EC50 (nM),6.2 nM
same,activity at 0.3 µM,[3],116%
"C[C@H](CCC(=O)O)[C@H]1CC[C@H]2[C@@H]3[C@@H](O)C[C@@H]4C[C@H](O)CC[C@]4(C)[C@H]3CC[C@]12C [UDCA, ursodeoxycholic acid, reference compound]",EC90,[5],100 nM
same,Dopamine level (increase in dopamine release),[6],No effect
same,% increase over vehicle treated (mean increase in ATP levels),[2],12%
same,pEC50,[7]; read-out: ATP EC50,8.30
same,pEC50,[7]; read-out: MMP EC50,8.14
same,Neuronal morphology (elongation; % controls),[7]; untreated sPD 48,64 % controls
same,ATP normalisation (% of controls),[7]; untreated sPD 50,82 % of controls
same,MMP normalisation (% of controls),[7]; untreated sPD 52,73 % of controls
same,ROS (Normalisation) (% controls),[7]; untreated sPD 115,110 % controls
same,Activated caspase 3 levels,[8],143 % of level in iNeurons from Controls
"C[C@H](CCC(=O)O)[C@H]1CC[C@H]2[C@@H]3[C@H](O)C[C@@H]4C[C@H](O)C(F)(F)C[C@]4(C)[C@H]3CC[C@]12C [Compound 8, 2,2-difluoro-3α,7α-dihydroxy-5β-cholanic acid]",% increase over vehicle treated (mean increase in ATP levels),[2],65%
